Data: patent US4814353A, “Therapeutic and prophylactic agent for gastritis” (Eisai Co., Ltd., priority 1985, dated 1989)

Assays:
[1] = Solubility; assay type: physicochemical
[2] = Clinical instances, acute gastritis, peroral teprenone (symptoms, endoscopy, side effects); assay type: in vivo, human; conditions: 150 mg per day perorally; for subjective symptoms: acute gastritis, 3 days after administration; for endoscopy, lesion of tunica mucosa ventriculi: 5 days after administration
From the text: (§1) Specific clinical instances will be illustrated to substantiate the effect of the present invention. In the clinical instances, "teprenone" refers to a compound according to the present invention (teprenone is 6,10,14,18-tetramethyl-;b 5,9,13,17-nonadecatetraen-2-one with n=4 in the general formula (I)).
person: actute gastritis
The instance is concerned with a person who visited a hospital while mainly complaining of epigastralgia.
The subjective symptoms included not only severe epigastralgia but also medium nausea, emesis, anorexia, slight pyrosis, abdominal flatulence, abdominal oppression, gastric dysphoria, and eructation.
150 mg per day of teprenone, which is a compound according to the present invention, was perorally administered to the patient.
person: acute gastritis
The conditions of te patient before administration were as follows.
The subjective symptoms included severe epigastralgia, anorexia, medium pyrosis, nausea, emesis, abdominal flatulence, gastric dysphoria, slight abdominal oppression, and eructation.
In endoscopy before administration, lesion of tunica mucosa ventriculi was recognized in the vestibulum (paries anterior venticuli, curvatura ventriculi minor, paries posterior ventriculi) and angularis (paries anterior ventriculi, curvatura ventriculi minor, paries posterior ventriculi).
(§2) 150 mg per day of teprenone, which is the compound according to the present invention, was perorally administered to the patient.

[3] = Acute toxicity test, rat (SD); conditions: in vivo
From the text: (§3) |Acute Toxicity LD50 (mg/μg)

[4] = Acute toxicity test, dog (beagle); conditions: in vivo, po, male, peroral
From the text: as §3

[5] = Acute toxicity test, mouse (ICR); conditions: in vivo
From the text: as §3

[6] = Clinical instances, acute animus state/stage of chronic gastritis, peroral teprenone (symptoms, endoscopy, side effects); assay type: in vivo, human; conditions: 150 mg per day perorally
From the text: as §1
person: acute animus state of chronic gastritis
The conditions of the patient before administration were as follows.
The patient complained of subjective symptoms including severe pyrosis, eructation, and slight nausea and emesis. Lesion of mucosa ventriculi was endoscopically recognized in the curvature ventriculi major of the vestibulum.
as §2
(§4) person: acute animus stage of chronic gastritis
The conditions of the patient before administration were as follows. The patient complained of medium epigastralgia, slight abdominal oppression, gastric dysphoria, and anorexia. Lesion of tunica mucosa ventriculi was endoscopically recognized in the curvatura ventriculi minor of the angularis and the curvatura ventriculi minor of the corpus ventriculi.
as §4
The subjective symptoms included epigastralgia, pyrosis, abdominal oppression, gastric dysphoria, and eructation. The levels of them were all medium.
Endoscopically, lesion was recognized in the vestibulum (paries anterior ventriculi, curvatura ventriculi minor, paries posterior ventriculi).

[7] = Clinical Instance 5, after two weeks

## CC(=O)CCC=C(C)CCC=C(C)CCC=C(C)CCC=C(C)C (mixture of isomers) [3:2 mixture of (5E,9E,13E)-6,10,14,18-tetramethyl-5,9,13,17-nonadecatetraen-2-one and (5Z,9E,13E)-6,10,14,18-tetramethyl-5,9,13,17-nonadecatetraen-2-one]
[1]; organic solvents
  solubility in organic solvents: soluble in organic solvents
[1]; water
  solubility in water: hardly soluble in water

## CC(=O)CCC=C(C)CCC=C(C)CCC=C(C)CCC=C(C)C [teprenone, 6,10,14,18-tetramethyl-5,9,13,17-nonadecatetraen-2-one]
[2]; Clinical Instance 1, person
  subjective symptoms: all the symptons disappeared
[2]; Clinical Instance 1
  observation of clinical inspection: no abnormality was recognized
  side effects: no side effect altogether
  endoscopy, lesion of tunica mucosa ventriculi: disappearance of the lesion of the tunica mucosa ventriculi was recognized
[2]; Clinical Instance 3, person
  subjective symptoms: all the symptoms disappeared
[2]; Clinical Instance 3
  observation of clinical inspection: no lesion was recognized
  side effects: no side effects altogether
  endoscopy, lesion of tunica mucosa ventriculi: disappearance of the lesion of tunica mucosa ventriculi was recognized
[3]; im, female, intramuscular
  LD50: > 5000 mg/kg
[3]; im, male, intramuscular
  LD50: > 5000 mg/kg
[3]; ip, female, intraperitoneal
  LD50: 3500 to 5000 mg/kg
[3]; ip, male, intraperitoneal
  LD50: > 5000 mg/kg
[3]; po, female, peroral
  LD50: > 15000 mg/kg
[3]; po, male, peroral
  LD50: > 15000 mg/kg
[3]; sc, female, subcutaneous
  LD50: > 10000 mg/kg
[3]; sc, male, subcutaneous
  LD50: > 10000 mg/kg
[4]
  LD50: > 1000 mg/kg
[5]; im, female, intramuscular
  LD50: > 5000 mg/kg
[5]; im, male, intramuscular
  LD50: > 5000 mg/kg
[5]; ip, female, intraperitoneal
  LD50: 3850 mg/kg
[5]; ip, male, intraperitoneal
  LD50: 3750 mg/kg
[5]; po, female, peroral
  LD50: > 15000 mg/kg
[5]; po, male, peroral
  LD50: > 15000 mg/kg
[5]; sc, female, subcutaneous
  LD50: > 10000 mg/kg
[5]; sc, male, subcutaneous
  LD50: > 10000 mg/kg
[6]; Clinical Instance 2, person, chronic gastritis, 3 days after administration
  subjective symptoms: all the symptoms disappeared
[6]; Clinical Instance 2
  side effects, including observation of clinical inspection: No side effects were recognized altogether
[6]; Clinical Instance 2, 16 days after administration
  endoscopy, lesion of tunica mucosa ventriculi: disappearance of the lesion of tunica mucosa ventriculi was recognized
[6]; Clinical Instance 4, person, chronic gastritis, 3 days after administration
  subjective symptoms: substantially all the symptoms disappeared except that slight epigastralgia remained
[6]; Clinical Instance 4
  side effects, including observation of clinical inspection: No side effects were recognized altogether
[6]; Clinical Instance 4, 5 days after administration
  epigastralgia: the epigastralgia also disappeared
[6]; Clinical Instance 4, 14 days after administration
  endoscopy, lesion of tunica mucosa ventriculi: disappearance of the lesion of tunica mucosa ventriculi was recognized
[6]; Clinical Instance 5, person, chronic gastritis, 3 days after administration
  subjective symptoms: the abdominal oppression, the gastric dysphoria, and the eructation were mitigated, but the epigastralgia and the pyrosis remained unchanged
[6]; Clinical Instance 5
  side effects: No side effects were regonized
[6]; Clinical Instance 5, a week after administration
  subjective symptoms: all the symptoms disappeared except for slight eructation
[6]; [7]
  endoscopy, lesion of tunica mucosa ventriculi: the lesion of tunica mucosa ventriculi disappeared in all parts
  eructation: The eructation remained
